Our source for the Activity values is ChEMBL document CHEMBL3045535, “Evaluation of lufenuron as a chemosterilant against fruit flies of the genus Anastrepha (Diptera: Tephritidae)” (2010).

The subject of experiment [1] is Anastrepha ludens. The experiment can be described thus: Reduction of fertility in 7 days old adult of Anastrepha ludens assessed as reduction of egg hatching at 10 mg/g treated with diet measured after 3 days oviposition. It counts as functional. Also on record: scale not given: the % may be the effect or the level left.
The subject of experiment [2] is Anastrepha serpentina. Nature of the experiment: Reduction of fertility in 7 days old adult of Anastrepha serpentina assessed as reduction of egg hatching at 1 mg/g treated with diet measured after 11 days oviposition. It counts as functional. Also on record: scale not given: the % may be the effect or the level left.

With `O=C(NC(=O)c1c(F)cccc1F)Nc1cc(Cl)c(OC(F)(F)C(F)C(F)(F)F)cc1Cl` (racemic) [LUFENURON], the Activity in experiment [1] stood at 4.7%; in experiment [2] it was 91.2%.
